# Assay results: patent US9532972B2, “Increasing taxane sensitivity in cancer cells” (UNIVERSITY OF CENTRAL FLORIDA RESEARCH FOUNDATION, INC., priority 2012, dated 2017)
# Columns and labels:
# Type in all cases: cell-based
# MDA-MB-231 = assay: Flow cytometry cell cycle analysis (propidium iodide DNA content); conditions: MDA-MB-231 cells, 2 μM docetaxel, 24 hrs
# Method: (§1) To confirm the results of the MTS assay, while further elucidating the link between LIMK1 expression and taxane sensitivity, the effects of taxane treatment on cell cycle were analyzed. […] Using flow cytometry to monitor DNA content, the percentages of cells in each phase of the cell cycle including the percentage of cells in the sub-G1 population (FIGS. 2A and B) were determined. […] Although after 24 hrs of treatment, the difference between cells lines became more apparent.
# (§2) Cells were seeded into 60 mm dishes and transfected the following day with one of the previous constructs. […] At each time point, media and cells were collected, washed, and fixed in 70% EtOH at −20° C. for at least 30 mins. Cells were then washed and stained for 30 mins in PBS containing: 2% BSA; 0.1% Pluronic F-68 (Sigma); Propidium Iodide [80 ug/mL] (Sigma); RNase [100 ug/mL]. Data was collected using FACSCalibur and analyzed using Cell Quest and ModFit software.
# P69 = assay: as above; conditions: P69 cells, 2 μM docetaxel, 24 hrs
# Method: as §1, §2
# MCF7 = assay: as above; conditions: MCF7 cells, 2 μM docetaxel, 24 hrs
# Method: as §1
# (§3) In order to confirm the implication of LIMK1 induced resistance to taxane treatment, the expression of LIMK1 in each cell line was altered. […] Sensitivity to the taxane treatment was monitored by MTS assay.
# as §2
# PC-3 = assay: as above; conditions: PC-3 cells, 2 μM docetaxel, 24 hrs
# Method: as §1, §3, §2
# [1] = system: cleaved caspases 3, cleaved caspases 9 and cleaved PARP; assay: Western blot of apoptotic markers in docetaxel treated cell lysates
# Description: FIG. 5: Higher LIMK1 expression diminished Taxane induced apoptotic response. PC3 cells were transiently transfected with either LIMK1 targeting shRNA construct or scrambled shRNA construct. […] After 24 hrs of DTX treatment, cell were harvested and apoptotic markers were monitored by immunoblot. Cyt c Release: PC3 and MCF7 were transiently transfected with LIMK1 and Scrambled shRNA constructs, P69 cells were transiently transfected with LIMK1 expression vector, LIMK1-shRNA vector or control vector. […] Following treatment cells were harvested and cytosolic, mitochondrial, and nuclear fractions were isolated. Presence of Cyt c in the cytosol was monitored by immunoblot of cytosolic fraction. Densinometry was used to determine relative values.
# Western blots were probed with the following antibodies: mouse anti-human-GAPDH (Sigma); mouse anti-FLAG (Sigma); rabbit anti-human-LIMK1 (Santa Cruz; Santa Cruz, Calif.); mouse anti-human LIMK1 (BD Pharmingen, San Diego, Calif.); rabbit anti-Cleaved Caspase 3/9 and anti-Cleaved PARP (Cell Signaling); rabbit anti-human-alpha-tubulin (Sigma). Mouse anti-Cytochrome c (R&D Systems). Rabbit anti-Prohibitin (Abcam). Rabbit anti-Bax (Santa Cruz). Rabbit anti-Bcl2 (Cell Signaling)
compound,measurement,setting,value
CC(=O)O[C@@]12CO[C@@H]1C[C@H](O)[C@@]1(C)C(=O)[C@H](O)C3=C(C)[C@@H](OC(=O)[C@H](O)[C@@H](NC(=O)OC(C)(C)C)c4ccccc4)C[C@@](O)([C@@H](OC(=O)c4ccccc4)[C@H]21)C3(C)C [docetaxel],sub-G1 population,MDA-MB-231,25%
same,sub-G1 population,P69,15%
same,sub-G1 population,MCF7,5%
same,sub-G1 population,PC-3,6%
same,cleaved PARP,[1],increased levels
same,cleaved caspases 3,[1],increased levels
same,cleaved caspases 9,[1],increased levels
